# Measured values taken from patent publication US12660812B2, “Cryoprotecting agent, cryoprotecting and cryopreserved compositions, uses thereof, and methods of cryopreservation” (PHARMACOSMOS HOLDING A/S, priority 2012, dated 2026).
# System: adipose-derived stromal/stem cells (ASC's)
# Assay: Viability of adipose-derived stromal/stem cells after cryopreservation, flow cytometry with 7-AAD
# Assay type: cell-based
# Details: 10% DMSO
# From the text: ASC's were harvested from adipose tissue obtained by cosmetic liposuction of the abdomen or the inner thighs using the Vibrasat device (Möller Medical GmbH & Co. KG, Fulda, Germany). The ASC's from the stromal vascular fraction were expanded ex vivo in culture medium consisting of Dulbecco's modified Eagle's medium, 1% penicillin-streptomycin, 1% GlutaMAX, and 10% pooled human platelet lysate. Cells were frozen in cryoprotective medium containing 10% DMSO or different concentrations of isomaltooligosaccharide 1 (isom) or hydrogenated isomaltooligosaccharide 1 (h-isom). Samples were frozen using a controlled rate freezer (Kryo 560-16, Planer; start temp. 4° C., −1° C./min drop to 0° C., −2° C./min drop to −45° C. and −5° C./min drop to −100° C.) and moved to −150° C. Samples were thawed in a 37° C. water bath. Flow cytometry was applied for phenotype characterization (positive for CD73, CD90, CD105 and negative for CD14, CD20, CD45 and CD34) and to estimate the viability of ASC's. The fluorescent DNA binding compound 7-Aminoactinomycin D (7-AAD) was used as a live/dead marker. Cells able to exclude 7AAD were assumed to be viable. The results are shown in FIG. 11: Isomaltooligosaccharide 1 (light grey bars), hydrogenated isomaltooligosaccharide 1 (dark grey bars) and DMSO (black bars). Data shown here are from a single experiment measured in doublets. […]
structure (smiles),measurement,value
"C[S+](C)[O-] [DMSO, dimethyl sulfoxide]","Viability of ASCs, result against expectation",lower than expected
